Where a name gives a salt, the structure may show the parent alone.
Key:
CYP1A2 = biological target: T1, CYP1A2 (Homo sapiens, UniProt P05177); test: Cytochrome P450 inhibition assay (P450-Glo) CYP1A2; assay type: in vitro ADME; conditions: compounds 10 μM; miltefosine 10 μM or 1 μM
T1 construct: purchased Corning Inc; host or cells: baculovirus-infected insect cells
T1 sequence (P05177 2-516 limits assumed): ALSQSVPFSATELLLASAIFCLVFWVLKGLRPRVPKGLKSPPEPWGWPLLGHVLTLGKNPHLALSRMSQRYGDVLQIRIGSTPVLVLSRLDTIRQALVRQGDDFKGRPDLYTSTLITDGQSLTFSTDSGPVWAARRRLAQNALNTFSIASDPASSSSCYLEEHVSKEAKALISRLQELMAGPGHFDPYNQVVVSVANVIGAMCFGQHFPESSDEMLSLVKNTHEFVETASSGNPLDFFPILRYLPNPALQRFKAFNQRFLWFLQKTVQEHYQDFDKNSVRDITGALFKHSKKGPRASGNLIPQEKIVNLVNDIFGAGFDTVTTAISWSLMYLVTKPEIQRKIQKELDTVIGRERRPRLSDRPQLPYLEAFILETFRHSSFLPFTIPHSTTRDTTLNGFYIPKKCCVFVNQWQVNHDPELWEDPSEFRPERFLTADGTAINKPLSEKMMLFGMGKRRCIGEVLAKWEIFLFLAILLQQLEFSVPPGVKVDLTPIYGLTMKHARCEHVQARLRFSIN
Text: Cytochrome (CYP) P450 inhibition assay: These assays made use of microsomal preparations of CYP450 (1A2, 2C9, 2C19, 2D6 and 3A4) from baculovirus-infected insect cells (Corning Inc., Corning, NY, USA) and cytochrome c reductase (and cytochrome b5 for CYP450 3A4). For detection of CYP450 activity, the luminescence-based P450-Glo (Promega Corp., Madison, WI, USA) assay system was used that contained a luminogenic CYP450 substrate, lyophilized luciferin detection reagent and reconstitution buffer. The substrates were luciferin derivatives of CYP450-specific substrates that produce (4S)-4,5-dihydro-2-(6-hydroxybenzothiazolyl)-4-thiazolecarboxylic acid (D-luciferin) after cleavage by CYP450 (CYP450 3A4, luciferin-IPA; CYP450 2C19, luciferin-H EGE; CYP450 2C9, luciferin-H; CYP450 2D6, luciferin-ME EGE; CYP450 1A2, luciferin-1A2). CYP450 reactions were initiated by addition of the NADPH regeneration system to the enzyme–substrate mixture with the luciferin detection reagent stopping the reaction and the D-luciferin being converted to oxyluciferin under the production of light being proportional to the CYP450 activity. The CYP450 assays were performed using the Tecan Fluent liquid-handling automation platform (Tecan Group Ltd., Mannedorf, Switzerland) in the 384-well assay format. Compounds were added into an empty 384-well plate (100 nL/well in 1% v/v DMSO) using the Echo 550 Liquid Handler followed by the addition of 5 μL/well of the CYP450/substrate mixture and incubation for 30 min at 37 °C, after which the reaction was initiated by the addition of the 5 μL/well NADPH regeneration system. After a further 30-min incubation at 37 °C, the CYP450 reaction was stopped and the luciferase reaction was simultaneously initiated by addition of 10 μL/well of luciferin detection reagent, followed by an additional 30-min incubation at 37 °C. The luminescence signal was detected using an Infinite M1000 PRO plate reader (Tecan Group Ltd., Mannedorf, Switzerland). The NCs yielded 0% inhibition (1% v/v DMSO) and standard CYP450 specific inhibitors were used as positive controls, yielding 100% inhibition (CYP450 1A2, alpha-naphthoflavone; CYP450 2C9, sulfaphenazole; CYP450 2C19, troglitazone; CYP450 2D6, quinidine; CYP450 3A4, ketoconazole).
Data analysis: The screening data were obtained in triplicate and analysed using ActivityBase (IDBS, Guildford, UK), and outlier elimination in the control wells was performed using the 3-sigma method. Unless stated, dose–response experiments were performed in the 11-point format with the IC50 value, Hill slope, minimum signal and maximum signal for each dose–response curve obtained using a four-parameter logistic fit in the XE module of ActivityBase (IDBS).

A549 cells = test: Cytotoxicity assay A549 (CellTiter-Glo); assay type: cell-based, human; conditions: compounds 10 μM; miltefosine 10 μM or 1 μM
Text: Early ADMET profiling: The early ADMET profiling of the new derivatives involved a group of assays widely used in drug development as part of the preclinical in vitro toxicity studies. In particular our panel included hERG inhibition, five cytochromes P450 (CYP1A2, CYP2C9, CYP2C19, CYP2D6 and CYP3A4), two cell-lines (A549, epithelial human lung adenocarcinoma, WI38 and foetal lung fibroblasts), Aurora B kinase and mitochondrial toxicity, in addition to the parasite relevant toxicity against THP1 macrophages. The compounds were tested at 10 μΜ, whilst the miltefosine control was tested at 10 μΜ or 1 μM. The toxicity of the new click phospholipids is depicted in Figure 3 in a traffic light format (from red through yellow to green for decreasing ADMET liabilities).
Cytotoxicity assay: A549 cells and WI-38 cells were grown on surface-modified T175 cell culture flasks in Dulbecco’s modified Eagle medium with 10% foetal calf serum (FCS), streptomycin (100 μg/mL) and 100 U/mL penicillin G. At about 80% confluency, cells were washed, trypsinized, resuspended and counted in RPMI-1640 medium before seeding (in triplicate) into white 384-well microtiter plates (20 μL) at 500 cells/well and incubated at 37 °C in the presence of 5% CO2 for 24 h. A total of 20 μL/well of CellTiter-Glo (CTG) reagent (Promega Corp., Madison, WI, USA) was added to each well, and plates were read using an EnVision Multilabel 2103 Reader after a 10-min incubation in the dark. Dose–response assays for compounds made use of 11-point curves. Each test compound (200 nL of 10 mM top concentration in 100% v/v DMSO) was added to cells seeded in polystyrene 384-well cell culture microtiter plates using the Echo 550 Liquid Handler and read after 24 h of incubation at 37 °C in the presence of 5% CO2 using CTG as described above. The compounds/positive control (paclitaxel with final concentration of 10 μM and 1% v/v DMSO) and no compound (final 1% v/v DMSO) were added into the 384-well plates (200 nL/well; 1% v/v DMSO) using the Echo 550 Liquid Handler. The raw luminescence signal of each sample was converted into the percentage of cell growth.

| SMILES | % inhibition ± SD at 10 μΜ CYP1A2 (CYP1A2) | % cell growth ± SD at 10 μΜ A549 (A549 cells) [%] |
| --- | --- | --- |
| CCCCCc1cn(CCCCCCCCCCCOP(=O)([O-])OCC[N+](C)(C)C)nn1 [Compound 25, 11-(4-pentyl-1H-1,2,3-triazol-1-yl)undecyl (2-(trimethylammonio)ethyl) phosphate inner salt] | –20.41% | 114.88 |
| CCCCCCCCc1noc(CCCCCOP(=O)([O-])OCC[N+](C)(C)C)n1 [Compound 53, 5-(3-octyl-1,2,4-oxadiazol-5-yl)pentyl (2-(trimethylammonio)ethyl) phosphate inner salt] | 20.03% | 87.74 |
| C[N+](C)(C)CCOP(=O)([O-])OCCCCCn1cc(CCCCCCCCN)nn1 [Compound 35, 5-(4-(8-aminooctyl)-1H-1,2,3-triazol-1-yl)pentyl (2-(trimethylammonio)ethyl) phosphate inner salt] | 9.42% | 100.96 |
| C[N+](C)(C)CCOP(=O)([O-])OCCCCCCCCCCCn1cc(CC2CCCCC2)nn1 [Compound 29, 11-(4-(cyclohexylmethyl)-1H-1,2,3-triazol-1-yl)undecyl (2-(trimethylammonio)ethyl) phosphate inner salt] | –28.56% | 120.63 |
| CCCCCCCCc1noc(CCCCCCCCCCOP(=O)([O-])OCC[N+](C)(C)C)n1 [Compound 54, 10-(3-octyl-1,2,4-oxadiazol-5-yl)decyl (2-(trimethylammonio)ethyl) phosphate inner salt] | 9.37% | 85.82 |
| C[N+](C)(C)CCOP(=O)([O-])OCCCCCCCCCCCn1cc(CCCCCCCCC(=O)O)nn1 [Compound 34, 11-(4-(8-carboxyoctyl)-1H-1,2,3-triazol-1-yl)undecyl (2-(trimethylammonio)ethyl) phosphate inner salt] | –3.73% |  |
| C[N+](C)(C)CCOP(=O)([O-])OCCCCCCCCCCCn1cc(CC2CCCC2)nn1 [Compound 28, 11-(4-(cyclopentylmethyl)-1H-1,2,3-triazol-1-yl)undecyl (2-(trimethylammo nio)ethyl) phosphate inner salt] | –13.84% | 121.51 |
| C[N+](C)(C)CCOP(=O)([O-])OCCCCCCCCCCCn1cc(CCCCCCCCNC(=O)OCc2ccccc2)nn1 [Compound 32, 11-(4-(8-(((benzyloxy)carbonyl)amino)octyl)-1H-1,2,3-triazol-1-yl)undecyl (2-(trimethylammonio)ethyl) phosphate inner salt] | 12.02% |  |
| C[N+](C)(C)CCCOP(=O)([O-])OCCCCCCCCCCCn1cc(CC2CCCCC2)nn1 [Compound 33, 11-(4-(cyclohexylmethyl)-1H-1,2,3-triazol-1-yl)undecyl (3-(trimethylammonio)propyl) phosphate inner salt] | 15.23% | 114.14 |
| CCCCCCCc1nnc(CCCCCCCCCCOP(=O)([O-])OCC[N+](C)(C)C)o1 [Compound 65, 10-(5-heptyl-1,3,4-oxadiazol-2-yl)decyl (2-(trimethylammonio)ethyl) phosphate inner salt] | 18.05% | 90.48 |
| C[N+](C)(C)CCOP(=O)([O-])OCCCCCn1cc(CCCCCCCCNC(=O)OCc2ccccc2)nn1 [Compound 31, 5-(4-(8-(((benzyloxy)carbonyl)amino)octyl)-1H-1,2,3-triazol-1-yl)pentyl (2-(trimethylammonio)ethyl) phosphate inner salt] | 13.80% | 108.64 |
| CCCCCCCCCCCCCCCCOP(=O)([O-])OCC[N+](C)(C)C [Miltefosine, hexadecylphosphocholine, reference compound] | –20.62% | 95.80 |
| CCCCCCCCCCCc1nnc(CCCCCCCCCCOP(=O)([O-])OCC[N+](C)(C)C)o1 [Compound 66, 2-(trimethylammonio)ethyl (10-(5-undecyl-1,3,4-oxadiazol-2-yl)decyl) phosphate inner salt] | 12.37% | 90.83 |
| CCCCCCCCCCc1cc(CCCCCCCCCCOP(=O)([O-])OCC[N+](C)(C)C)no1 [Compound 41, 10-(5-decylisoxazol-3-yl)decyl (2-(trimethylammonio)ethyl) phosphate inner salt] | 10.86% | 85.15 |
